target: T1, Syk (Homo sapiens, UniProt P43405); experiment: Syk HTRF assay; assay type: biochemical; conditions: IC50 activity level, read-out: Activity Level
T1 construct: purchased Carna Biosciences
Outline: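 HTRF kinase assay in HEPES pH 7.6 buffer with MgCl2, DTT and Triton X100; start mix of 87.5 μM ATP and 80 nM biotinylated peptide, 1 h at room temperature. EDTA stop, then Eu-anti-phosphotyrosine/streptavidin-DyLight 647 detection, read as 665/615 nm emission ratio.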

First: c1ccc(Nc2nc3cccc(N[C@@H]4CCNC4)n3n2)cc1 [Example 474, (R)-N^2-phenyl-N^5-(pyrrolidin-3-yl)-[1,2,4]triazolo[1,5-a]pyridin-2,5-diamine]
Second: c1ccc(Nc2nc3cccc(NC4CCCNC4)n3n2)cc1 (stereo in doubt) [Example 497, (R)-N^2-phenyl-N^5-(piperidin-3-yl)-[1,2,4]triazolo[1,5-a]pyridin-2,5-diamine]
The IC50 of the first is lower: 500 to 1000 nM for the first, 1000 to 10000 nM for the second. The first is the more potent here.

Cn1c(=O)[nH]c2cc(Nc3nc4cccc(NC5CCOCC5)n4n3)ccc21 [Example 569, 1-methyl-5-(5-(tetrahydro-2H-pyran-4-ylamino)-[1,2,4-]triazolo[1,5-a]pyridin-2-ylamino)-1H-benzo[d]imidazol-2(3H)-one] and Cn1c(=O)[nH]c2cc(Nc3nc4cccc(CC5CCOCC5)n4n3)ccc21 [Example 532, 1-methyl-5-(5-((tetrahydro-2H-pyran-4-yl)methyl)-[1,2,4]triazolo[1,5-a]pyridin-2-ylamino)-1H-benzo[d]imidazol-2(3H)-one] fall in the same range of IC50: 0.005 to 250 nM for the first, 0.005 to 250 nM for the second.

Compared with N[C@H]1CC[C@@H](Nc2cccc3nc(Nc4ccccc4)nn23)CC1 [Example 508, cis-N^5-(4-aminocyclohexyl)-N^2-phenyl-[1,2,4]triazolo[1,5-a]pyridine-2,5-diamine], O[C@H]1CC[C@@H](Nc2cccc3nc(Nc4ccccc4)nn23)CC1 [Example 471, cis-4-(2-(phenylamino)-[1,2,4]triazolo[1,5-a]pyridin-5-ylamino)cyclohexanol] is lower in IC50: 250 to 500 nM for the first, 0.005 to 250 nM for the second.

Compared with Cc1noc2cc(Nc3nc4cccc(N[C@H]5CC[C@@H](O)CC5)n4n3)ccc12 [Example 543, cis-4-(2-(3-methylbenzo[d]isoxazol-6-ylamino)-[1,2,4]triazolo[1,5-a]pyridin-5-ylamino)cyclohexanol], O[C@H]1CC[C@@H](Oc2cccc3nc(Nc4ccc(F)cc4)nn23)CC1 [Example 417, cis-4-(2-(4-fluorophenylamino)-[1,2,4]triazolo[1,5-a]pyridin-5-yloxy)cyclohexanol] is higher in IC50: 0.005 to 250 nM for the first, 1000 to 10000 nM for the second. The first is the more potent here.

First: Cc1n[nH]c2cc(Nc3nc4cccc(CC(C)CO)n4n3)ccc12 (stereo in doubt) [Example 555, (S)-2-methyl-3-(2-(3-methyl-1H-indazol-6-ylamino)-[1,2,4]triazolo[1,5-a]pyridin-5-yl)propan-1-ol]
Second: CC(C)C(=O)Nc1cccc2nc(Nc3ccccc3)nn12 [Example 526, N-(2-(phenylamino)-[1,2,4]triazolo[1,5-a]pyridin-5-yl)isobutyramide]
The IC50 of the first is lower: 0.005 to 250 nM for the first, 1000 to 10000 nM for the second.

Compared with O=C(N[C@H]1CCCNC1)c1cccc2nc(Nc3ccccc3)nn12 [Example 504, (S)-2-(phenylamino)-N-(piperidin-3-yl)-[1,2,4]triazolo[1,5-a]pyridine-5-carboxamide], CNCc1nc2ccc(-c3cccc4nc(Nc5ccccc5)nn34)cc2o1 [Example 424, 5-(2-((methylamino)methyl)benzo[d]oxazol-6-yl)-N-phenyl-[1,2,4]triazolo[1,5-a]pyridin-2-amine] is lower in IC50: 1000 to 10000 nM for the first, 500 to 1000 nM for the second. The second is the more potent here.

N[C@H]1CC[C@H](Oc2cccc3nc(Nc4ccc(C(F)(F)F)cc4)nn23)CC1 (stereo in doubt) [Example 422, trans-5-(4-aminocyclohexyloxy)-N-(4-(trifluoromethyl)phenyl)-[1,2,4]triazolo[1,5-a]pyridin-2-amine] and CNCc1nc2ccc(-c3cccc4nc(Nc5ccc(F)cc5)nn34)cc2[nH]1 [Example 437, N-(4-fluorophenyl)-5-(2-((methylamino)methyl)-1H-benzo[d]imidazol-6-yl)-[1,2,4]triazolo[1,5-a]pyridin-2-amine] fall in the same range of IC50: 0.005 to 250 nM for the first, 0.005 to 250 nM for the second.

same assay, conditions: activity levels A-D, read-out: Activity Level (IC50 in the Syk HTRF assay)

First: NCCCOc1cccc2nc(Nc3ccc(C(F)(F)F)cc3)nn12 [Example 321, 5-(3-aminopropoxy)-N-(4-(trifluoromethyl)phenyl)-[1,2,4]triazolo[1,5-a]pyridin-2-amine]
Second: NCCOc1cccc2nc(Nc3ccc(C(F)(F)F)cc3)nn12 [Example 296, 5-(2-aminoethoxy)-N-(4-(trifluoromethyl)phenyl)-[1,2,4]triazolo[1,5-a]pyridin-2-amine]
The IC50 of the first is higher: 1000 to 10000 nM for the first, 500 to 1000 nM for the second. The second is the more potent here.

First: CNC(=O)c1ccc(Nc2nc3cccc(CC4CCC(O)C4)n3n2)cc1 (single isomer, unassigned; diastereomer 1) [Example 232, 4-(5-((3-hydroxycyclopentyl)methyl)-[1,2,4]triazolo[1,5-a]pyridin-2-ylamino)-N-methylbenzamide (diastereomer 1)]
Second: FC(F)(F)c1ccc(Nc2nc3cccc(CC4CCNCC4)n3n2)cc1 [Example 395, 5-(piperidin-4-ylmethyl)-N-(4-(trifluoromethyl)phenyl)-[1,2,4]triazolo[1,5-a]pyridin-2-amine]
The IC50 of the first is higher: 1000 to 10000 nM for the first, 0.005 to 250 nM for the second. The second is the more potent here.

Compared with Cn1ncc2cc(Nc3nc4cccc(N[C@H]5CC[C@@H](O)CC5)n4n3)ccc21 [Example 236, cis-4-(2-(1-methyl-1H-indazol-5-ylamino)-[1,2,4]triazolo[1,5-a]pyridin-5-ylamino)cyclohexanol], Oc1ccc(Nc2nc3cccc(N[C@H]4CC[C@@H](O)CC4)n3n2)cn1 [Example 371, cis-5-(5-(4-hydroxycyclohexylamino)-[1,2,4]triazolo[1,5-a]pyridin-2-ylamino)pyridin-2-ol] is higher in IC50: 0.005 to 250 nM for the first, 1000 to 10000 nM for the second. The first is the more potent here.

First: O[C@@H]1CCC[C@H]1Nc1cc(-c2cccc3nc(Nc4ccc(C(F)(F)F)cc4)nn23)ccn1 [Example 246, (1R,2R)-2-(4-(2-(4-(trifluoromethyl)phenylamino)-[1,2,4]triazolo[1,5-a]pyridin-5-yl)pyridin-2-ylamino)cyclopentanol]
Second: FC(F)(F)c1ccc(Nc2nc3cccc(-c4cnc5nc[nH]c5c4)n3n2)cc1 [Example 380, 5-(1H-imidazo[4,5-b]pyridin-6-yl)-N-(4-(trifluoromethyl)phenyl)-[1,2,4]triazolo[1,5-a]pyridin-2-amine]
The IC50 of the first is higher: 500 to 1000 nM for the first, 0.005 to 250 nM for the second.

Compared with NC(=O)c1ccc(Nc2nc3cccc(N[C@H]4CC[C@@H](O)CC4)n3n2)c(F)c1 [Example 340, cis-3-fluoro-4-(5-(4-hydroxycyclohexylamino)-[1,2,4]triazolo[1,5-a]pyridin-2-ylamino)benzamide], O[C@H]1CC[C@@H](Nc2cccc3nc(Nc4ccc5[nH]nnc5c4)nn23)CC1 [Example 237, cis-4-(2-(1H-benzo[d][1,2,3]triazolo-5-ylamino)-[1,2,4]triazolo[1,5-a]pyridin-5-ylamino)cyclohexanol] is lower in IC50: 1000 to 10000 nM for the first, 0.005 to 250 nM for the second. The second is the more potent here.

NC(=O)C1CCCN(Cc2cccc3nc(Nc4ccc(C(F)(F)F)cc4)nn23)C1 (stereo not drawn) [Example 257, 1-((2-(4-(trifluoromethyl)phenylamino)-[1,2,4]triazolo[1,5-a]pyridin-5-yl)methyl)piperidine-3-carboxamide] and OCCOc1cccc2nc(Nc3ccc(C(F)(F)F)cc3)nn12 [Example 315, 2-(2-(4-(trifluoromethyl)phenylamino)-[1,2,4]triazolo[1,5-a]pyridin-5-yloxy)ethanol] fall in the same range of IC50: 1000 to 10000 nM for the first, 1000 to 10000 nM for the second.

First: O=C1Cc2ccc(Nc3nc4cccc(N[C@H]5CC[C@@H](O)CC5)n4n3)cc2N1 [Example 238, cis-6-(5-(4-hydroxycyclohexylamino)-[1,2,4]triazolo[1,5-a]pyridin-2-ylamino)indolin-2-one]
Second: C[C@H](CO)Nc1cccc2nc(Nc3ccc(C(F)(F)F)cc3)nn12 [Example 328, (R)-2-(2-(4-(trifluoromethyl)phenylamino)-[1,2,4]triazolo[1,5-a]pyridin-5-ylamino)propan-1-ol]
The IC50 of the first is lower: 0.005 to 250 nM for the first, 1000 to 10000 nM for the second.

same assay, conditions: read-out: Activity Level (Syk HTRF assay IC50)

Compared with Cc1n[nH]c2cc(Nc3nc4cccc(N(C)CCO)n4n3)ccc12 [Example 190, 2-(methyl(2-(3-methyl-1H-indazol-6-ylamino)-[1,2,4]triazolo[1,5-a]pyridin-5-yl)amino)ethanol], Cc1n[nH]c2ccc(Nc3nc4cccc(NC5CCOCC5)n4n3)cc12 [compound 117] is higher in IC50: 0.005 to 250 nM for the first, 500 to 1000 nM for the second.

First: CN1C(=O)Cc2ccc(Nc3nc4cccc(CC5CCOCC5)n4n3)cc21 [compound 118, 1-methyl-6-(5-((tetrahydro-2H-pyran-4-yl)methyl)-[1,2,4]triazolo[1,5-a]pyridin-2-ylamino)indolin-2-one]
Second: COCc1n[nH]c2cc(Nc3nc4cccc(CC5CCOCC5)n4n3)ccc12 [compound 104, N-(3-(methoxymethyl)-1H-indazol-6-yl)-5-((tetrahydro-2H-pyran-4-yl)methyl)-[1,2,4]triazolo[1,5-a]pyridin-2-amine]
The IC50 of the first is higher: 1000 to 10000 nM for the first, 0.005 to 250 nM for the second. The second is the more potent here.

First: CNC(=O)c1ccc(Nc2nc3cccc(-c4cc(Cl)cc(-c5ccccc5C(N)=O)c4)n3n2)cc1 [compound 5, 3′-chloro-5′-(2-(4-(methylcarbamoyl)phenylamino)-[1,2,4]triazolo[1,5-a]pyridin-5-yl)biphenyl-2-carboxamide]
Second: CNC(=O)c1ccc(Nc2nc3cccc(-c4cccc(C(=O)O)c4)n3n2)cc1 [compound 30, 3-(2-(4-(methylcarbamoyl)phenylamino)-[1,2,4]triazolo[1,5-a]pyridin-5-yl)benzoic acid]
The IC50 of the first is lower: 0.005 to 250 nM for the first, 1000 to 10000 nM for the second.

First: NCCNc1cc(Nc2nc3cccc(-c4ccccc4)n3n2)ccn1 [compound 39]
Second: c1ccc(-c2cccc3nc(Nc4cccnc4)nn23)cc1 [compound 75, 5-phenyl-N-(pyridin-3-yl)-[1,2,4]triazolo[1,5-a]pyridin-2-amine]
The IC50 of the first is lower: 250 to 500 nM for the first, 500 to 1000 nM for the second.

First: CC1(C)C(=O)Nc2cc(Nc3nc4cccc(OC5CCOC5)n4n3)ccc21 (stereo in doubt) [Example 134, (R)-3,3-dimethyl-6-(5-(tetrahydrofuran-3-yloxy)-[1,2,4]triazolo[1,5-a]pyridin-2-ylamino)indolin-2-one]
Second: NC(=O)c1ccc(Nc2nc3cccc(-c4ccccc4)n3n2)cn1 [compound 72, 5-(5-phenyl-[1,2,4]triazolo[1,5-a]pyridin-2-ylamino)picolinamide]
The IC50 of the first is lower: 0.005 to 250 nM for the first, 1000 to 10000 nM for the second. The first is the more potent here.

N#Cc1ccc(-c2cccc3nc(Nc4ccccc4)nn23)cc1 [compound 76, 4-(2-(phenylamino)-[1,2,4]triazolo[1,5-a]pyridin-5-yl)benzonitrile] gave an IC50 of 1000 to 10000 nM.
